Assay results reported in the NIST ThermoML archive (doi:10.1016/j.jct.2007.03.010).

Assay: excess molar enthalpy (molar enthalpy of mixing); xn = mol fraction of the nth substance listed
Conditions: 101 kPa, Liquid, Calvet calorimetry

NCCNCCO [N-(2-aminoethyl)ethanolamine] + O
Conditions | excess molar enthalpy [kcal/mol]
298.15 K, x1 = 0.0298 | -0.184
298.15 K, x1 = 0.0496 | -0.304
298.15 K, x1 = 0.0699 | -0.409
298.15 K, x1 = 0.0992 | -0.536
298.15 K, x1 = 0.1503 | -0.717
298.15 K, x1 = 0.2015 | -0.824
298.15 K, x1 = 0.2962 | -0.934
298.15 K, x1 = 0.2982 | -0.936
298.15 K, x1 = 0.3484 | -0.958
298.15 K, x1 = 0.3994 | -0.945
298.15 K, x1 = 0.4454 | -0.901
298.15 K, x1 = 0.4962 | -0.834
298.15 K, x1 = 0.505 | -0.821
298.15 K, x1 = 0.5922 | -0.685
298.15 K, x1 = 0.6969 | -0.524
298.15 K, x1 = 0.77 | -0.409
298.15 K, x1 = 0.9077 | -0.186
313.15 K, x1 = 0.0299 | -0.224
313.15 K, x1 = 0.0498 | -0.315
313.15 K, x1 = 0.0701 | -0.411
313.15 K, x1 = 0.1 | -0.559
313.15 K, x1 = 0.1495 | -0.729
313.15 K, x1 = 0.2002 | -0.865
313.15 K, x1 = 0.2956 | -0.984
313.15 K, x1 = 0.3547 | -1.01
313.15 K, x1 = 0.4001 | -0.992
313.15 K, x1 = 0.4461 | -0.95
313.15 K, x1 = 0.4893 | -0.904
313.15 K, x1 = 0.6009 | -0.752
313.15 K, x1 = 0.6723 | -0.638
313.15 K, x1 = 0.7961 | -0.41
313.15 K, x1 = 0.9041 | -0.212
323.15 K, x1 = 0.0301 | -0.147
323.15 K, x1 = 0.0498 | -0.246
323.15 K, x1 = 0.0697 | -0.381
323.15 K, x1 = 0.0992 | -0.487
323.15 K, x1 = 0.1491 | -0.697
323.15 K, x1 = 0.1988 | -0.816
323.15 K, x1 = 0.3014 | -0.912
323.15 K, x1 = 0.3527 | -0.941
323.15 K, x1 = 0.3958 | -0.936
323.15 K, x1 = 0.4971 | -0.86
323.15 K, x1 = 0.5908 | -0.723
323.15 K, x1 = 0.7056 | -0.536
323.15 K, x1 = 0.7484 | -0.463
323.15 K, x1 = 0.8999 | -0.196

OCCNCCO [diethanolamine] + O
298.15 K
Conditions | excess molar enthalpy [kcal/mol]
x1 = 0.0553 | -0.164
x1 = 0.0732 | -0.214
x1 = 0.1001 | -0.273
x1 = 0.2005 | -0.425
x1 = 0.2943 | -0.497
x1 = 0.34 | -0.51
x1 = 0.4007 | -0.498
x1 = 0.4969 | -0.458
x1 = 0.5945 | -0.385
x1 = 0.6597 | -0.332
x1 = 0.7421 | -0.261
x1 = 0.8312 | -0.172
x1 = 0.9283 | -0.0722

CNCCO [2-(methylamino)ethanol] + O
Conditions | excess molar enthalpy [kcal/mol]
298.15 K, x1 = 0.0302 | -0.127
298.15 K, x1 = 0.0514 | -0.216
298.15 K, x1 = 0.0695 | -0.278
298.15 K, x1 = 0.1002 | -0.354
298.15 K, x1 = 0.1485 | -0.459
298.15 K, x1 = 0.1992 | -0.536
298.15 K, x1 = 0.3021 | -0.638
298.15 K, x1 = 0.3471 | -0.657
298.15 K, x1 = 0.3996 | -0.653
298.15 K, x1 = 0.4471 | -0.637
298.15 K, x1 = 0.5017 | -0.599
298.15 K, x1 = 0.5992 | -0.513
298.15 K, x1 = 0.696 | -0.408
298.15 K, x1 = 0.7988 | -0.291
298.15 K, x1 = 0.8939 | -0.164
313.15 K, x1 = 0.031 | -0.128
313.15 K, x1 = 0.05 | -0.216
313.15 K, x1 = 0.0704 | -0.283
313.15 K, x1 = 0.1011 | -0.38
313.15 K, x1 = 0.1488 | -0.475
313.15 K, x1 = 0.2003 | -0.55
313.15 K, x1 = 0.2983 | -0.631
313.15 K, x1 = 0.3491 | -0.64
313.15 K, x1 = 0.3986 | -0.638
313.15 K, x1 = 0.5035 | -0.601
313.15 K, x1 = 0.5833 | -0.547
313.15 K, x1 = 0.686 | -0.459
313.15 K, x1 = 0.8053 | -0.305
313.15 K, x1 = 0.8956 | -0.162
323.15 K, x1 = 0.0299 | -0.177
323.15 K, x1 = 0.0501 | -0.266
323.15 K, x1 = 0.07 | -0.325
323.15 K, x1 = 0.1008 | -0.396
323.15 K, x1 = 0.1504 | -0.472
323.15 K, x1 = 0.2004 | -0.531
323.15 K, x1 = 0.2985 | -0.614
323.15 K, x1 = 0.3492 | -0.631
323.15 K, x1 = 0.4023 | -0.633
323.15 K, x1 = 0.5108 | -0.592
323.15 K, x1 = 0.6095 | -0.512
323.15 K, x1 = 0.6956 | -0.414
323.15 K, x1 = 0.8039 | -0.279
323.15 K, x1 = 0.8815 | -0.179
